From patent publication US9302991B2, “Arylamide derivatives as TTX-S blockers” (RaQualia Pharma Inc., priority 2010, dated 2016)

Key:
[1] = target: T1, human Nav1.7 channels (Homo sapiens, UniProt Q15858); assay: FRET assay, human Nav1.7 (EFS on FDSS); format: cell-based; conditions: CHO cells expressing human Nav1.7, read-out: IC50 against Nav1.7
T1 construct: expressed in transfected cells; host or cells: CHO
How it was run: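 CHO cells stably expressing the channel, loaded with CC2-DMPE (10 µM) then DiSBAC2(3) (15 µM) plus VABSC-1, in HEPES-buffered saline pH 7.4 at room temperature. Electrical field stimulation on FDSS; FRET ratio at 440 nm fitted for IC50.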

[2] = target: T2, human Nav1.3 channels (Homo sapiens, UniProt Q9NY46); assay: FRET assay, human Nav1.3 (EFS on FDSS); format: cell-based; conditions: HEK293 cells expressing human Nav1.3, read-out: IC50 against Nav1.3
T2 construct: expressed in transfected cells; host or cells: HEK293
How it was run: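 HEK293 cells expressing the channel, loaded with 10 microM CC2-DMPE then 15 microM DiSBAC2(3) plus 0.555 mM VABSC-1 in pH 7.4 HEPES buffer at room temperature. Membrane potential changes evoked by electrical field stimulation after compound addition; IC50 from 440 nm-normalized FRET ratios.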

T2 sequence (Q9NY46 whole entry): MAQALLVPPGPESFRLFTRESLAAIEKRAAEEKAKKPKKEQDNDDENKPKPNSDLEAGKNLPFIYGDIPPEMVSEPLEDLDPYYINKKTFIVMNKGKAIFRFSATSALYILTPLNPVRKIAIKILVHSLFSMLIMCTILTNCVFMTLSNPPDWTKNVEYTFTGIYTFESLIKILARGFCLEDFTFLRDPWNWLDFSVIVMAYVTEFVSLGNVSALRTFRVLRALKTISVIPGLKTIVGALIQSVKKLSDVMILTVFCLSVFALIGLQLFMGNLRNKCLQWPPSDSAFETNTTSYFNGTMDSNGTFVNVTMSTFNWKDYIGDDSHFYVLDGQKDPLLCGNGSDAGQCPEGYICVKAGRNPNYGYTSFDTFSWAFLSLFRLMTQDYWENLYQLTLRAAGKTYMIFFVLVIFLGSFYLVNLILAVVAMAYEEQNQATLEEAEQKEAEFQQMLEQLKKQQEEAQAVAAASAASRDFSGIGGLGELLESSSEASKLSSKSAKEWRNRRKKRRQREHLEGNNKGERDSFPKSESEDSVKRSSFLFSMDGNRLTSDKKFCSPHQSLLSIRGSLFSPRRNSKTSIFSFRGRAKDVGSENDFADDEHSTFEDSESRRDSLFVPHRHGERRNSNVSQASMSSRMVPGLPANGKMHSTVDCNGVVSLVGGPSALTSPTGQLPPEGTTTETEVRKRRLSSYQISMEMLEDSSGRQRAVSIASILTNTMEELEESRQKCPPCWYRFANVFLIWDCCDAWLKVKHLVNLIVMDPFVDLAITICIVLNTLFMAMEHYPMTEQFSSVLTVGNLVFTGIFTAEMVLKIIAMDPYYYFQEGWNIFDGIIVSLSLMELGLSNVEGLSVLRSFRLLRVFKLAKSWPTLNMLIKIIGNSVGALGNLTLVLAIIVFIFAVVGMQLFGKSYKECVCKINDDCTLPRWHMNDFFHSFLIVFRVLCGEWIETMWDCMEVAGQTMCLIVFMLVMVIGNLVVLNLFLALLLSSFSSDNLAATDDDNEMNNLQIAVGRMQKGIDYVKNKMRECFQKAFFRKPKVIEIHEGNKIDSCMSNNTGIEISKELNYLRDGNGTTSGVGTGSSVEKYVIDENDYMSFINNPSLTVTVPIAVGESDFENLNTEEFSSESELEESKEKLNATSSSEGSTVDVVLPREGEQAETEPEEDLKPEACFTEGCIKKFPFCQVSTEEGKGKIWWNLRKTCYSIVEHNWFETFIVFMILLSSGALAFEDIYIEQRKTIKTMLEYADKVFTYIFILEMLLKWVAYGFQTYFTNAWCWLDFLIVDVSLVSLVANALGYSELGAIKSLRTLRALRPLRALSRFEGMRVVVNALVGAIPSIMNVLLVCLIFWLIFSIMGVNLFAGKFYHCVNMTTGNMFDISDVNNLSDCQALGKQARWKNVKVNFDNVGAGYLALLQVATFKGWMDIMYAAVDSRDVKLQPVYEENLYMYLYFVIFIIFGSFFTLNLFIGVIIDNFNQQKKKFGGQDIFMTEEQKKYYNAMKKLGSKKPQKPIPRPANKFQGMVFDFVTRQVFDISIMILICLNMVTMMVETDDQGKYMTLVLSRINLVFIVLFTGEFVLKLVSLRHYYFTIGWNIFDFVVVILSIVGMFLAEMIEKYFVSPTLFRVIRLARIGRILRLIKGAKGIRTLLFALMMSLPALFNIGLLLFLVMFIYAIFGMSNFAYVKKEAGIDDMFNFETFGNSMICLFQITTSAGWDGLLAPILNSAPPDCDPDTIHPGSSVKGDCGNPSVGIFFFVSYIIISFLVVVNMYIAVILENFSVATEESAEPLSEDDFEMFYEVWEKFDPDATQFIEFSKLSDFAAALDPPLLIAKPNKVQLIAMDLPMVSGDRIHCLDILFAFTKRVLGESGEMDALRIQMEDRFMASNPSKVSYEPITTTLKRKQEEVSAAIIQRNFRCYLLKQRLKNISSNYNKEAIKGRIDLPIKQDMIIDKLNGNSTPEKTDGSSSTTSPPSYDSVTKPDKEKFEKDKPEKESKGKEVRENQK
T1 sequence (Q15858 whole entry): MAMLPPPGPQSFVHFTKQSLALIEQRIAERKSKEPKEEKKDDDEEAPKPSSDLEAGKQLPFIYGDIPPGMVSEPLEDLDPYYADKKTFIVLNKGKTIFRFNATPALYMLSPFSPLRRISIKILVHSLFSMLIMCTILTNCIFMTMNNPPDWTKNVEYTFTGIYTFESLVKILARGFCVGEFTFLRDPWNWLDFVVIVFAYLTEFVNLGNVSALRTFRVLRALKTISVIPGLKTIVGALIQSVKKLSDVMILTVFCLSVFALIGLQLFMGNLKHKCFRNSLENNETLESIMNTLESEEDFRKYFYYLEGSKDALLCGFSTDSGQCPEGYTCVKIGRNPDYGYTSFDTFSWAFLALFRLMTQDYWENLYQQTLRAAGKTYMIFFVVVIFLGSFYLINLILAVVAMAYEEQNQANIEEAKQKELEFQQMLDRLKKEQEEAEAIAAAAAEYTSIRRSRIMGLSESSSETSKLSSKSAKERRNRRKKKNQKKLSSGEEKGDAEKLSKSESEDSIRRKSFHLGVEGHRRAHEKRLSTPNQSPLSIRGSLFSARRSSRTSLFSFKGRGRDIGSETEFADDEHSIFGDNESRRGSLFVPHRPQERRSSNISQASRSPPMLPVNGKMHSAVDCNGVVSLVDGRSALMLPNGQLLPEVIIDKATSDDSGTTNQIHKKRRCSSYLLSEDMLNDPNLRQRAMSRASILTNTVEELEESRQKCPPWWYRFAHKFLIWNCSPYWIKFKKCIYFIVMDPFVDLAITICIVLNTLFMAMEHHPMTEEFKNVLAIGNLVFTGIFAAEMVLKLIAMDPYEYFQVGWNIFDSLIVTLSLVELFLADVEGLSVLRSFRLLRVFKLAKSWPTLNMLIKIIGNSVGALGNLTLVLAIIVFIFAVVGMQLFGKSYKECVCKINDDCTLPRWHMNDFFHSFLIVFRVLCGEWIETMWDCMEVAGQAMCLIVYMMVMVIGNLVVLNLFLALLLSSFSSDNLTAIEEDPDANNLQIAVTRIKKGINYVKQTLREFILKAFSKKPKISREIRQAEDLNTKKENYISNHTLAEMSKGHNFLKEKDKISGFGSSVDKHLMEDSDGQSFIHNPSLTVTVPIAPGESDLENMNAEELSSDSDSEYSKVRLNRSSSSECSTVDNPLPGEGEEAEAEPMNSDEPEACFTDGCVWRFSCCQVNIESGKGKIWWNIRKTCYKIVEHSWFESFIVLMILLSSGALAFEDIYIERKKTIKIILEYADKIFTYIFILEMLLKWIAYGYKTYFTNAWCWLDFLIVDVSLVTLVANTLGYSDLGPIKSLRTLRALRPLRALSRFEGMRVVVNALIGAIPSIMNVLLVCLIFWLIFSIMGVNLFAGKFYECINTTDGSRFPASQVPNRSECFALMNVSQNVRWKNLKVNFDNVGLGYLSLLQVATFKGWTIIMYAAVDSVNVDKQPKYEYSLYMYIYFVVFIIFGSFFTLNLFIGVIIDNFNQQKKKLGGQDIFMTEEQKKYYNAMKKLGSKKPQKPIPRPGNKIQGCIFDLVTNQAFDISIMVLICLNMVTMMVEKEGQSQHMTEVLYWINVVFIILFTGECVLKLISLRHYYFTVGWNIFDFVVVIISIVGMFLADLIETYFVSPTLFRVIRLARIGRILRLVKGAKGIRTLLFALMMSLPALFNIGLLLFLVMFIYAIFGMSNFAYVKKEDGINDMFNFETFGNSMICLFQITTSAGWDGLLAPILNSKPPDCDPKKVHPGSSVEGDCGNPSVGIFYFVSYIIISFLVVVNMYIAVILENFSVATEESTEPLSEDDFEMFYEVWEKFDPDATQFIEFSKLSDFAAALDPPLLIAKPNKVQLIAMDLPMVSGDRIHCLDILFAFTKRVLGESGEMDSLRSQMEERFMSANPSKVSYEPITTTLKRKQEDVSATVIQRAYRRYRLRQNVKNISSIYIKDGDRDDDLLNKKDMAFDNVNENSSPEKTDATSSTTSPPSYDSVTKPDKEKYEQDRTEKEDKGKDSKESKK

Structure (SMILES) | IC50 [1] [nM] | IC50 [2] [nM]
Cc1cc(C(=O)NC(C)c2cccc(OC(F)(F)F)c2)cc(NC(=O)C(C)C)n1 (single isomer, unassigned) [Example 499, 2-isobutyramido-6-methyl-N-(1-(3-(trifluoromethoxy)phenyl)ethyl)isonicotinamide] | < 1000 | < 1000
CC(=O)Nc1cc(C(=O)NCc2cnc(OCC(F)(F)C(F)F)c(C)c2)ccn1 [Example 939, 2-acetamido-N-((5-methyl-6-(2,2,3,3-tetrafluoropropoxy)pyridin-3-yl)methyl)isonicotinamide] | < 1000 | < 1000
Cc1cc(C(C)NC(=O)c2ccnc(NC(=O)C(C)C)c2)cnc1OCC(F)F (single isomer, unassigned) [Example 555, N-(1-(6-(2,2-difluoroethoxy)-5-methylpyridin-3-yl)ethyl)-2-isobutyramidoisonicotinamide] | < 1000 | < 1000
Cc1cc(C(=O)NCc2cnc(OCC(F)(F)C(F)F)c(C)c2)cc(NC(=O)C(C)C)n1 [Example 945, 2-isobutyramido-6-methyl-N-((5-methyl-6-(2,2,3,3-tetrafluoropropoxy)pyridin-3-yl)methyl)isonicotinamide] | < 1000 | < 1000
CCc1cc(CNC(=O)c2cc(C)nc(NC(=O)C(C)C)c2)cnc1OCC(F)F [Example 911, N-((6-(2,2-difluoroethoxy)-5-ethylpyridin-3-yl)methyl)-2-isobutyramido-6-methylisonicotinamide] | < 1000 | < 1000
CCC(=O)Nc1cc(C(=O)NCc2ccc(OCC(F)(F)F)nc2)cc(C)n1 [Example 153, 2-methyl-6-propionamido-N-((6-(2,2,2-trifluoroethoxy)pyridin-3-yl)methyl)isonicotinamide] | < 1000 | < 1000

Now from value to molecule:

IC50 [1] [nM] | IC50 [2] [nM] | Structure (SMILES)
< 1000 | < 1000 | CC(NC(=O)c1ccnc(NC(=O)C2CC2)n1)c1ccc(OCC(F)(F)F)c(Cl)c1 (single isomer, unassigned) [Example 680, N-(1-(3-chloro-4-(2,2,2-trifluoroethoxy)phenyl)ethyl)-2-(cyclopropanecarboxamido)pyrimidine-4-carboxamide]
< 1000 | < 1000 | CCC(=O)Nc1cc(C(=O)NC(C)c2cnc(OCC(F)(F)F)c(Cl)c2)cc(C)n1 (single isomer, unassigned) [Example 130, N-(1-(5-chloro-6-(2,2,2-trifluoroethoxy)pyridin-3-yl)ethyl)-2-methyl-6-propionamidoisonicotinamide]
< 1000 | < 1000 | CCC(=O)Nc1cc(C(=O)NC(C)c2cnc(OCC(F)(F)F)c(C)c2)ccn1 (single isomer, unassigned) [Example 87, N-(1-(5-methyl-6-(2,2,2-trifluoroethoxy)pyridin-3-yl)ethyl)-2-propionamidoisonicotinamide]
< 1000 | < 1000 | O=C(NCc1ccc(OCC(F)(F)F)nc1)c1ccnc(NC(=O)C2CC2)c1 [Example 152, 2-(cyclopropanecarboxamido)-N-((6-(2,2,2-trifluoroethoxy)pyridin-3-yl)methyl)isonicotinamide]
< 1000 | < 1000 | Cc1cc(C(=O)NC(C)c2cnc(OCC(F)(F)F)c(C)c2)cc(NC(=O)CC2CC2)n1 (single isomer, unassigned) [Example 953, 2-(2-cyclopropylacetamido)-6-methyl-N-(1-(5-methyl-6-(2,2,2-trifluoroethoxy)pyridin-3-yl)ethyl)isonicotinamide]
< 1000 | < 1000 | CCC(=O)Nc1cc(C(=O)NCc2cnc(OCC(F)(F)F)c(Cl)c2)ccn1 [Example 94, N-((5-chloro-6-(2,2,2-trifluoroethoxy)pyridin-3-yl)methyl)-2-propionamidoisonicotinamide]
< 1000 | < 1000 | CCC(=O)Nc1cc(C(=O)NC(C)c2cnc(OCC(F)(F)F)c(Cl)c2)ccn1 (single isomer, unassigned) [Example 69, N-(1-(5-chloro-6-(2,2,2-trifluoroethoxy)pyridin-3-yl)ethyl)-2-propionamidoisonicotinamide]
< 1000 | < 1000 | CCC(=O)Nc1cc(C(=O)NC(C)c2cnc(OCC(F)(F)C(F)F)c(C)c2)ccn1 (single isomer, unassigned) [Example 925, N-(1-(5-methyl-6-(2,2,3,3-tetrafluoropropoxy)pyridin-3-yl)ethyl)-2-propionamidoisonicotinamide]
< 1000 | < 1000 | Cc1cc(C(=O)NC(C)c2ccc(OCC(F)(F)F)nc2)cc(NC(=O)C(C)C)n1 (single isomer, unassigned) [Example 62, 2-isobutyramido-6-methyl-N-(1-(6-(2,2,2-trifluoroethoxy)pyridin-3-yl)ethyl)isonicotinamide]
